Source: patent US9808535B2, “Conjugates for protection from nephrotoxic active substances” (Merck Patent GmbH, priority 2013, dated 2017)
Residues, ends and D or L forms follow the SMILES beside them. ξ: configuration not given here. *: point of attachment. Lipoyl(6ξ) = O=C(CCCCC1CCSS1)*

Key:
[1] = infusion, 740 to 900 mg/m^2 of body surface area; cited from earlier work
[2] = mouse, in vivo, iv

SMILES	arterial hypotension as severe side effect [1]	kidney specificity [2]
NCCCNCCSP(=O)(O)O [Amifostin]	In over half of patients	–
NCCCCC(NC(=O)C(CCC(=O)O)NC(=O)C(CCC(=O)O)NC(=O)C(CCC(=O)O)NC(=O)C(CCCCNC(=O)CCCCC1CCSS1)NC(=O)C(CCCCN)NC(=O)C(CCCCN)NC(=O)C(CCC(=O)O)NC(=O)C(CCC(=O)O)NC(=O)C(CCC(=O)O)NC(=O)C(CCCCNC(=O)CCCCC1CCSS1)NC(=O)C(CCCCN)NC(=O)C(CCCCN)NC(=O)C(CCC(=O)O)NC(=O)C(CCC(=O)O)NC(=O)C(CCC(=O)O)NC(=O)C(CCCCNC(=O)CCCCC1CCSS1)NC(=O)C(CCCCN)NC(=O)C(CCCCN)NC(=O)C(N)Cc1ccc(O)cc1)C(N)=O (centres unmarked) [y(KKKe(lipoic acid)EEE)3K] (H-YKKK(Lipoyl(6ξ))EEEKKK(Lipoyl(6ξ))EEEKKK(Lipoyl(6ξ))EEEK-NH2; configuration not given here)	–	high kidney specificity
